According to US20080139534A1, “Bisbenzamidines and bisbenzamidoximes for the treatment of human African trypanosomiasis” (XAVIER UNIVERSITY OF LOUISIANA, priority 2006, published 2008):
Where two headings read alike, the source gives them in different places. Marks after values point to notes of the source that are not given here.

What was measured:
[1] = system: T. b. rhodesiense KETRI 243; experiment: In vitro trypanocidal activity, bloodforms in HMI-18 medium, Coulter counts; assay type: cell-based, Trypanosoma brucei rhodesiense; conditions: 48 h exposure
Experimental: (§1) The compounds were tested against trypanosome isolates grown as blood forms in HMI-18 medium containing 20% horse serum in 24 well microplates at 37° C. in 5% CO2. Wells were inoculated with 1×10^5 trypanosomes. […] One-half the volume was replaced daily. Cell counts were made daily with a Coulter Counter, Model Z1 (Beckman Coulter, Miami, Fla., USA). Cells were diluted with Isoton I buffer (Beckman Coulter) and the aperture was standardized at 5.14 μm. Background checks were performed daily on 1:10 dilutions of medium. Counts, normalization, and coincident counts were accounted for by the standardized Coulter analysis program. Occasionally, hemocytometer counts were performed as a check on the validity of the Coulter program. IC50 values were determined after 48 h from semi-log plots and the values are the result of duplicate determinations. Initially a broad concentration curve was used and then a close concentration curve from which IC50 values were determined. Assays were done in duplicate and each point was the average of the two. Control cells grew to 5×10^6/ml.
(§2) Coulter counts were made daily and IC50 values determined after 48 hours exposure.

poly(dA-dT) = experiment: Thermal denaturation study, DNA binding affinity (ΔTm); conditions: 1:5 compound to base pair ratio;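 note: shift in the midpoint temperature of the thermal melting curve of poly(dA-dT), each value the mean of two or more independent determinations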
Experimental: (§3) The binding affinity was measured by determining the change in the midpoint (Tm) of the thermal denaturation curves of calf thymus DNA as well as poly(dA-dT) at a 1:5 compound to base pair ratio.

[2] = system: T. b. brucei Lab 110 EATRO; experiment: In vivo efficacy in infected mice; design: species or system Trypanosoma brucei brucei
Experimental: Female Swiss-Webster mice (weight, 20 g) were infected (intraperitoneally) with 2.5×10^5 trypanosomes from rat blood, and the infection was allowed to develop for 24 h before drug treatment was begun. Groups of three mice each were injected (intraperitoneally) with each drug concentration. All of the experiments included a group of untreated controls. […] Parasitemia of animals dying of infection averaged 0.5-1.0×10^9/mL of blood. These infections are very predictable and daily counts were not done because of the labor involved. […] Animals were monitored weekly for parasites in tail vein blood smears. Mice were considered cured if they survived more than 30 days after the death of the last control with no parasites in tail vein blood smears. MSD (mean survival in days) was also recorded for each group. It is the average time of survival of the animals in the group, exclusive of cured animals.
Mice were infected with 250,000 parasites and dosing commenced 24 h. post infection. Mice were separated into groups of three and given single i.p doses for 3 days unless otherwise noted. Infected untreated controls were used for each experiment. Mice were considered cured if surviving more than 30 days beyond death of controls without parasites in tail vein blood smears. MSD, mean survival in days, exclusive of cured animals.

[3] = system: T. b. brucei Lab 110 EATRO; experiment: In vitro trypanocidal activity, bloodforms in HMI-18 medium, Coulter counts; assay type: cell-based, Trypanosoma brucei brucei; conditions: 48 h exposure, bloodforms, read-out: Lab 100 EATRO IC50
Experimental: as §1, §2

calf thymus DNA = experiment: Thermal denaturation study, DNA binding affinity (ΔTm); conditions: 1:5 compound to base pair ratio;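 note: shift in midpoint melting temperature of calf thymus DNA thermal denaturation curves caused by compound binding, values averaged over at least two determinations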
Experimental: as §3

[4] = system: T. b. rhodesiense KETRI 2002; experiment: In vivo efficacy in infected mice, clinical isolate; design: species or system Trypanosoma brucei rhodesiense
Experimental: (§4) Female Swiss-Webster mice (weight, 20 g) were infected (intraperitoneally) with 2.5×10^5 trypanosomes from rat blood, and the infection was allowed to develop for 24 h before drug treatment was begun. Groups of three mice each were injected (intraperitoneally) with each drug concentration. All of the experiments included a group of untreated controls. […] Animals were monitored weekly for parasites in tail vein blood smears. Mice were considered cured if they survived more than 30 days after the death of the last control with no parasites in tail vein blood smears. MSD (mean survival in days) was also recorded for each group. It is the average time of survival of the animals in the group, exclusive of cured animals.
(§5) Mice were infected on day 1 with 2.5×10^5 trypanosomes and the infections allowed to progress 24 h. prior to dosing. Animals were dosed 1×/day i.p for 3 days. Cured animals survived >30 days beyond the death of untreated, infected controls. MSD=mean survival in days exclusive of cured animals. Dose as mg/kg/day.

[5] = system: T. b. rhodesiense KETRI 1992; experiment: as above; design: species or system Trypanosoma brucei rhodesiense
Experimental: as §4, §5

[6] = mice, 1, 2.5, 5, 10, 15, 25 mg/kg/day i.p. for 3 days (all doses failed to cure)
[7] = mice, 1, 2.5, 5, 10, 15, 25 mg/kg/day i.p. for 3 days (all doses)
[8] = KETRI 2002, 1 mg/kg/day i.p. for 3 days
[9] = KETRI 2002, 5 mg/kg/day i.p. for 3 days
[10] = KETRI 2002, 10 mg/kg/day i.p. for 3 days
[11] = KETRI 2002, 15 mg/kg/day i.p. for 3 days
[12] = mice, 1 mg/kg/day i.p. for 3 days
[13] = mice, 5 mg/kg/day i.p. for 3 days
[14] = mice, 10 mg/kg/day i.p. for 3 days
[15] = KETRI 1992, 1 mg/kg/day i.p. for 3 days
[16] = KETRI 1992, 5 mg/kg/day i.p. for 3 days
[17] = KETRI 1992, 10 mg/kg/day i.p. for 3 days
[18] = KETRI 1992, 25 mg/kg/day i.p. for 3 days
[19] = mice, 15 mg/kg/day i.p. for 3 days

DNA Binding Δ Tm Poly (dA-dT) (poly(dA-dT)) [°C] | melting point [°C] | Compound | IC50 [1] [nM] | # Cured/#Treated (%) [2, 6] | MSD [2, 7] [days] | IC50 [3] [nM] | DNA Binding Δ Tm Calf thymus (calf thymus DNA) [°C] | MSD [2, 12] [days] | MSD [2, 13] [days] | MSD [2, 14] [days] | also measured
−0.1 | – | N=C(N)c1ccc(OCc2ccccc2COc2ccc(C(=N)N)cc2)cc1 [compound 0513] | 2.55 | 0/3^a | 5 | 1.25 | −0.2 | – | – | – | –
18.0 | – | N=C(N)c1ccc(OCc2ccc(COc3ccc(C(=N)N)cc3)cc2)cc1 [compound 0508] | 0.665 | 0/3^a | 5 to 17.3 | 0.295 | 12.5 | – | – | – | –
– | – | N=C(N)c1ccc(NC(=O)CCCCCCCCC(=O)Nc2ccc(C(=N)N)cc2)cc1 [compound 0709] | 4.1 | – | – | 2 | – | 12 | >30 | >30 | #Cured/Total [4, 8]: 0/3; MSD [4, 8]: 18 days; MSD [4, 9]: 33 days; MSD [4, 10]: >30 days; MSD [4, 11]: >30 days; MSD ([4]; KETRI 2002, 25 mg/kg/day i.p. for 3 days): >30 days; MSD ([2]; mice, 25 mg/kg/day i.p. for 3 days): >30 days; #Cured/Total [5, 15]: 0/3; MSD [5, 15]: 12.6 days; #Cured/Total [5, 16]: 0/3; MSD [5, 16]: 13.7 days; #Cured/Total [5, 17]: 0/3; MSD [5, 17]: 15.7 days; #Cured/Total [5, 18]: 0/3; MSD [5, 18]: 26.6 days
10.1 | – | CCCCCCNC(=N)c1ccc(N2CCN(c3ccc(C(=N)NCCCCCC)cc3)CC2)cc1.Cl.Cl [compound 0128] | 23.9 | 0/3^a | 5.3 to 10.6 | 13 | 10.7 | – | – | – | –
18.6 | – | CCNC(=N)c1ccc(N2CCN(c3ccc(C(=N)NCC)cc3)CC2)cc1.Cl.Cl [compound 0140] | 33 | – | – | 13 | 15.3 | 5 | 18 | 17 | # Cured/#Treated (%) [2, 12]: 0/3
– | – | N=C(N)c1ccc(NC(=O)CCCCCC(=O)Nc2ccc(C(=N)N)cc2)cc1 [compound 0706] | 2.05 | – | – | 1.62 | – | >30 | >30 | >30 | MSD [4, 8]: >30 days; MSD [4, 9]: >30 days; MSD [4, 10]: >30 days; MSD [4, 11]: >30 days; MSD [2, 19]: >30 days; #Cured/Total [5, 15]: 0/3; MSD [5, 15]: 14 days; #Cured/Total [5, 16]: 0/3; MSD [5, 16]: 18.3 days; #Cured/Total [5, 17]: 0/3; MSD [5, 17]: 18.6 days; #Cured/Total [5, 18]: 0/3; MSD [5, 18]: 19.3 days
– | 255 to 257 | O=C(CCCC(=O)Nc1ccc(-c2noc(-c3ccccc3)n2)cc1)Nc1ccc(-c2noc(-c3ccccc3)n2)cc1 [TH747, N,N′-Bis[4-(5-Phenyl-1,2,4-oxadiazol-3yl)phenyl]pentanediamide] | – | – | – | – | – | – | – | – | –
18.7 | – | Cl.Cl.N=C(NC1CCCCCC1)c1ccc(N2CCN(c3ccc(C(=N)NC4CCCCCC4)cc3)CC2)cc1 [compound 0129] | 22 | – | – | 18 | 15.6 | 7.5 | 9 | >30 | # Cured/#Treated (%) [2, 12]: 0/3; MSD ([2]; mice, 7.5 mg/kg/day i.p. for 3 days): >30 days; MSD [2, 19]: >30 days
−0.1 | – | N=C(N)c1ccc(COc2ccccc2OCc2ccc(C(=N)N)cc2)cc1 [compound 0519] | 2.1 | 0/3^a | 5 | 1.3 | 0.1 | – | – | – | –
– | 235 to 237 | Cc1nc(-c2ccc(NC(=O)CCCC(=O)Nc3ccc(-c4noc(C)n4)cc3)cc2)no1 [TH728, N,N′-Bis[4-(5-Methyl-1,2,4-oxadiazol-3yl)phenyl]pentanediamide] | – | – | – | – | – | – | – | – | –
– | 182 to 184 | CCCCCC(=O)ONC(=N)c1ccc(NC(=O)CCCC(=O)Nc2ccc(C(=N)NOC(=O)CCCCC)cc2)cc1 [TH742, N,N′-Bis[4-(N-Pentylcarbonyloxyamidino)phenyl]pentanediamide] | – | – | – | – | – | – | – | – | –

Compound | DNA Binding Δ Tm Poly (dA-dT) (poly(dA-dT)) [°C] | melting point [°C] | IC50 [1] [nM] | # Cured/#Treated (%) [2, 6] | MSD [2, 7] [days] | IC50 [3] [nM] | DNA Binding Δ Tm Calf thymus (calf thymus DNA) [°C] | MSD [2, 12] [days] | MSD [2, 13] [days] | MSD [2, 14] [days] | also measured
CC(=O)O/N=C(\N)c1ccc(NC(=O)CCCC(=O)Nc2ccc(/C(N)=N/OC(C)=O)cc2)cc1 [TH724, N,N′-bis[4-(N-acetoxyamidino)phenyl]pentanediamide] | – | 225 to 228 | – | – | – | – | – | – | – | – | –
CCCNC(=N)c1ccc(N2CCN(c3ccc(C(=N)NCCC)cc3)CC2)cc1.Cl.Cl [63N, N,N′-Dipropyl 4,4′-(1,4-piperazinediyl)bisbenzenecarboxidamide] | 26.0 | – | – | – | – | – | 17.0 | – | – | – | IC50 ([1]; Trypanosoma brucei, RHODESIENSE): 32.5 nM; IC50 ([3]; Trypanosoma brucei): 35 nM
